Data from publication PMC12442099 (ACS Infectious Diseases, 2025).
Converted amounts (≈) assume the structure as drawn.

Experiments:
[1] = tested on: Rcs cell envelope stress response in Escherichia coli; assay: Rcs stress reporter assay, HTS format, dose-response curves; assay type: cell-based; conditions: for Emax: read-out: Max. effect (%); for EC50: read-out: pEC50 (converted)
Description: We adapted the reporter assay based on the Rcs stress system for HTS in a screening program at the ELF as the first bacterial phenotypic screen used in this setting. , The assay was performed in a 1536-well format using 25 μM PMBN as a reference (set at 100% effect).
The ELF screened their extensive and diverse library consisting of >500,000 small molecules at a concentration of 10 μM. The assay window (S/B) and Z’ values remained stable (2.0–15.2 and 0.50–0.90, respectively) throughout the screening campaign. The detailed standard screening procedure of the ELF is outlined elsewhere. An overview of the selection process of the screening campaign performed here is outlined in Figure . Initially, 340 compounds with an effect ≥20% of the reference compound PMBN were considered biologically active. Usually, up to 1% of the input library is selected for confirmatory, dose–response, orthogonal and deselection assays. Because the number of biological actives identified in this assay was well below the 1% limit, no orthogonal assays were performed. Instead, all compounds were reordered and tested as dilution series in the Rcs assay to generate dose–response curves (DRCs). Each compound’s pEC50 (−log of EC50, defined as the concentration (mol/L) at which 50% effect is achieved) was determined, and compounds with a pEC50 ≥ 4.7 were selected for further analysis. Next, the compounds were subjected to a mammalian cell-based cytotoxicity assay to exclude toxic compounds that may have a generic effect on membrane integrity. Compounds that reduced mammalian cell viability by 50% were considered cytotoxic. The qualified hit list (QHL) was then generated following triaging based on LC-MS analysis and pEC50 values.
Overnight cultures (ONCs) were prepared by inoculating 5 mL medium from glycerol stocks and incubating the culture for 16–18 h. ONCs were then diluted to an OD600 of 0.05 and grown until an OD600 of 0.3–0.4 was reached.
Assay robustness was confirmed by testing its sensitivity to assay-interfering agents, including colored, aggregating and fluorescent compounds. […] For HTS, bacteria were diluted 50x in prewarmed medium. Fifteen nL of assay compounds (10 μM), DMSO (0.25%), or the reference compound polymyxin B nonapeptide (PMBN) at 25 μM were added to 1536 well plates. Next, 6 μL culture aliquots were added to assay plates containing compounds. Plates were briefly centrifuged for 1 min at 150 x g. Plates were incubated at 37 °C with high humidity and fluorescence (Ex./Em. λ: 485/528 nm) was measured at T = 0 and T = 150 min using a ClarioStar plate reader (BMG Labtech). For data analysis, T = 0 values were subtracted from T = 150 values to calculate Z-score and % effect compared to the reference compound.
Dose–response curves of the 340 initial active compounds were determined following the preparation of serial dilutions (20 nM–20 μM; 7 points, √10). The % effect compared to the reference compound PMBN was calculated and plotted for each compound dilution. The resulting plots were used to calculate pEC50 (-log(EC50), with EC50 being determined as the concentration at which a 50% effect is observed).

A. baumanni 9955 = assay: MIC broth microdilution; assay type: cell-based; conditions: Acinetobacter baumannii, clinical isolate, CAMHB, median of triplicates, read-out: MIC (μg/mL) A. baumanni 9955
Description: (§1) The antibacterial activity of the compounds was determined by measuring their minimum inhibitory concentration (MIC) values using the broth microdilution method according to the Clinical and Laboratory Standards Institute guidelines (CLSI). Briefly, a single colony from blood agar plates was inoculated into cation-adjusted Mueller-Hinton broth (CAMHB) and grown to OD600 = 0.5. Next, 10^6 CFU/mL were added to a 2-fold serial dilution series of test compounds and incubated at 37 °C, 600 rpm overnight (18–20 h for Gram-negative strains, 20–24 h for Gram-positive strains), after which the plates were visually inspected for bacterial growth. MICs are reported as the median of triplicates.

E. coli 25922 = assay: MIC broth microdilution; assay type: cell-based; conditions: Escherichia coli, CAMHB, median of triplicates, read-out: MIC (μg/mL) E. coli 25922
Description: as §1

E. coli BW25113 = assay: MIC broth microdilution; assay type: cell-based; conditions: Escherichia coli, CAMHB, median of triplicates, read-out: MIC (μg/mL) E. coli BW25113
Description: as §1

E. coli TOP10F’ = assay: MIC broth microdilution; assay type: cell-based; conditions: Escherichia coli; screening strain; CAMHB, median of triplicates; read-out: MIC (μg/mL) E. coli TOP10F’
Description: as §1

K. pneumoniae 13883 = assay: MIC broth microdilution; assay type: cell-based; conditions: Klebsiella pneumoniae, clinical isolate, CAMHB, median of triplicates, read-out: MIC (μg/mL) K. pneumoniae 13883
Description: as §1

P. aeruginosa 27853 = assay: MIC broth microdilution; assay type: cell-based; conditions: Pseudomonas aeruginosa, clinical isolate, CAMHB, median of triplicates, read-out: MIC (μg/mL) P. aeruginosa 27853
Description: as §1

S. aureus USA 300 = assay: MIC broth microdilution; assay type: cell-based; conditions: Staphylococcus aureus, USA300; clinical isolate; CAMHB, median of triplicates; read-out: MIC (μg/mL) S. aureus USA 300
Description: as §1

E. coli TOP10F' = assay: Growth inhibition after 7 hours (EC80/EC50); conditions: Escherichia coli, 7 h; for EC50: read-out: EC50 TOP10F'; for IC80: read-out: EC80 TOP10F'
E. coli MC4100 = assay: Growth inhibition after 7 hours (EC80/EC50); conditions: Escherichia coli, MC4100, 7 h; for EC50: read-out: EC50 MC4100; for IC80: read-out: EC80 MC4100
[2] = tested on: Rcs stress response in E. coli TOP10F’; assay: Rcs stress kinetics reporter assay; assay type: cell-based
Description: Stress was measured in real-time during 10 h following compound treatment by normalizing the fluorescence intensity for growth as indicated by the optical density at 600 nm (OD600) of the culture.
3 Bacterial stress responses of different compound classes as shown in panel (A). (B) Rcs, (C) σE, (D) Cpx, and (E) heat shock. Graphs show fold change in fluorescence normalized for OD600 at EC80 compound concentrations over the course of 10h. Fold change values were determined by comparing OD600‑normalized fluorescence of compound-treated samples to DMSO treated samples. PMBN is used as a CE stress-inducing control at 25 μg/mL, which is the concentration used as a control during the screening campaign. Chloramphenicol at 1 μg/mL is used as a non-stress-inducing antibiotic control. Error bars indicate standard deviation of the average of triplicate samples from at least two independent experiments. (F) Overview of the different stress responses based on the compound class.
(§2) For lower throughput analysis under laboratory conditions, cultures grown to OD600 of 0.3–0.4 were diluted to a final concnetration of 0.05 OD600 units/mL in black, clear-bottom 96-well plates (Greiner Bio-One B.V.). Plates were incubated in a Biotek HTX or H1 plate reader (Agilent Technologies) at 37 °C with continuous shaking. Kinetic studies were performed by measuring OD600 and fluorescence (Ex./Em. Λ: 485/528 nm) every 20 min for 10h. For end point measurements, fluorescence was measured at T = 0 and once more at T = 150 min.

[3] = tested on: SOS stress response in E. coli MC4100; assay: SOS stress reporter assay (PlexA-mNG); assay type: cell-based; conditions: EC80 compound concentrations (Fig. 5A); Fig. S4
Excerpt: To examine the potential link between DNA gyrase inhibition, SOS stress, and CE stress, we designed a fluorescent SOS reporter plasmid, similar to the reporter plasmids used to study CE stresses.
5 (A) SOS stress induced by different compounds at EC80 concentrations in E. coli MC4100. (B) Rcs stress of different compounds at EC80 concentrations in E. coli MC4100. (C) Rcs stress of the nonquinolone gyrase inhibitor LEI-800 in TOP10F’. (D) Rcs stress induced by mitomycin C in E. coli TOP10F’ and E. coli MC4100. Graphs show fold change in fluorescence adjusted for bacterial growth (OD600). Error bars indicate standard deviation of triplicates. Data are representative of two independent experiments with similar results.

[4] = tested on: Rcs stress response in E. coli MC4100 (WT, FQR, GEPR); assay: Rcs stress reporter assay in MC4100 wildtype and resistant mutants; assay type: cell-based; conditions: EC80 concentrations
Excerpt: Serial passaging of E. coli MC4100 in the presence of increasing concentrations of lomefloxacin or gepotidacin yielded resistant variants of E. coli MC4100. We used MC4100 to raise resistance, because unlike the screening strain TOP10F’, this strain has a functional SOS stress response, which has been implicated in developing resistance against quinolones. Compounds also elicited a robust Rcs stress response in E. coli MC4100, allowing for this strain to be used for stress assays.
4 Rcs stress induced by EC80 concentrations of (A) lomefloxacin, (B) gepotidacin, (C) A2, and (D) B1 in wildtype (WT), fluoroquinolone resistant (FQR) or gepotidacin resistant (GEPR) bacteria. Graphs show the fold change in fluorescence adjusted for bacterial growth as determined by OD600. Error bars indicate the standard deviation of triplicate samples. Data are representative of three independent experiments with similar results. […]
as §2

Compound	Emax [1] [%]	EC50 [1] [nM]	MIC (A. baumanni 9955) [µg/mL]	MIC (E. coli 25922) [µg/mL]	MIC (E. coli BW25113) [µg/mL]	MIC (E. coli TOP10F’) [µg/mL]	MIC (K. pneumoniae 13883) [µg/mL]	MIC (P. aeruginosa 27853) [µg/mL]	MIC (S. aureus USA 300) [µg/mL]	EC50 (E. coli TOP10F') [µg/mL]	IC80 (E. coli TOP10F') [µg/mL]	EC50 (E. coli MC4100) [µg/mL]	IC80 (E. coli MC4100) [µg/mL]	induction of stress response systems (Rcs, σE, Cpx, heat shock) ([2]; chloramphenicol 1 μg/mL, negative control)	Rcs stress induction in SOS-deficient TOP10F’ ([2]; fold change fluorescence/OD600)	SOS stress induction in MC4100 [3]	Rcs stress induction in MC4100 wildtype [4]
CNn1cc(C(=O)O)c(=O)c2cc(F)c(N3CCN(C(C)C)CC3)cc21 [A4]	20.8	214	2 (≈ 5.52 µM)	0.25 (≈ 0.69 µM)	0.25 (≈ 0.69 µM)	0.125 (≈ 0.345 µM)	0.5 (≈ 1.38 µM)	16 (≈ 44.1 µM)	64 (≈ 177 µM)	2 (≈ 5.52 µM)	4 (≈ 11 µM)	0.25 (≈ 0.69 µM)	1 (≈ 2.76 µM)				
O=C(N[C@H](CO)[C@H](O)c1ccc([N+](=O)[O-])cc1)C(Cl)Cl [Chloramphenicol]														did not induce any of the stress response systems tested			
O=S(=O)(NC[C@@H]1CC[C@H](c2ccc(-c3cccnc3)cc2)N1)c1cccc2cnccc12 [LEI-800, reference compound]										1 (≈ 2.25 µM)	8 (≈ 18 µM)	2 (≈ 4.5 µM)	8 (≈ 18 µM)		induced high levels of Rcs stress similar to CluB compounds	did not induce strong fluorescence	Neither compound induced Rcs stress
CN(C)c1ccc(-c2nc(Cl)nc3cccnc23)cc1 [S2]	87.9	7760															
CCc1cc(-c2c(F)cc3c(=O)c(C(=O)O)cn4c3c2OC[C@@H]4C)cc(C)n1 [A3]	18.6	191	0.5 (≈ 1.31 µM)	0.125 (≈ 0.327 µM)	0.125 (≈ 0.327 µM)	< 0.03	1 (≈ 2.62 µM)	8 (≈ 20.9 µM)	0.5 (≈ 1.31 µM)	0.0078 (≈ 0.0204 µM)	0.031 (≈ 0.0811 µM)	0.25 (≈ 0.654 µM)	1 (≈ 2.62 µM)				
COC1CN(CCn2c(=O)ccc3ncc(F)cc32)CCC1NCc1cc(F)c2c(c1)NC(=O)CO2 (stereo not drawn) [B2]	53.2	631	1 (≈ 2 µM)	2 (≈ 4 µM)	1 (≈ 2 µM)	0.06 (≈ 0.12 µM)	4 (≈ 8.01 µM)	8 (≈ 16 µM)	0.25 (≈ 0.5 µM)	< 0.063	2 (≈ 4 µM)	2 (≈ 4 µM)	16 (≈ 32 µM)				
Cc1ncc(CNC2CCN(CCn3c(=O)ccc4ncc(OCc5ccnn5C)cc43)CC2)cc1Cl [B3]	37.9	5620	8 (≈ 15.3 µM)	16 (≈ 30.6 µM)	16 (≈ 30.6 µM)	2 (≈ 3.83 µM)	64 (≈ 123 µM)	> 64	0.125 (≈ 0.239 µM)	0.016 (≈ 0.0306 µM)	1 (≈ 1.92 µM)	2 (≈ 3.83 µM)	> 16				
Cc1cc(-c2c(F)cc3c(=O)c(C(=O)O)cn(CCF)c3c2F)cc(C)n1 [A1]	26.1	955	1 (≈ 2.66 µM)	0.5 (≈ 1.33 µM)	0.25 (≈ 0.664 µM)	< 0.03	1 (≈ 2.66 µM)	16 (≈ 42.5 µM)	1 (≈ 2.66 µM)	0.016 (≈ 0.0425 µM)	0.063 (≈ 0.167 µM)	0.5 (≈ 1.33 µM)	2 (≈ 5.31 µM)				
